# Source: patent publication US11123337B2, “4-methylsulfonyl-substituted piperidine urea compounds” (MYOKARDIA, INC., priority 2015, dated 2021)
# Target: bovine cardiac myosin (Bos taurus, UniProt Q9BE39)
# Test: Myosin activation assay (PK/LDH-coupled ATPase, bovine cardiac myofibrils)
# Type: biochemical
# Settings: AC20 = concentration at which total response is increased by twenty percent
# In short: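 Values are the concentrations raising the ATPase rate by 20% or 50% over DMSO, from 10-point dose responses fitted with four parameters. Rate is NADH loss at 340 nm via PK/LDH coupling, read 15 min at room temperature, in pH 6.8 PIPES with 50 μM ATP. Bovine cardiac myofibrils were held at pCa ~6 or pCa 10.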
# Sequence of bovine cardiac myosin (Q9BE39 whole entry): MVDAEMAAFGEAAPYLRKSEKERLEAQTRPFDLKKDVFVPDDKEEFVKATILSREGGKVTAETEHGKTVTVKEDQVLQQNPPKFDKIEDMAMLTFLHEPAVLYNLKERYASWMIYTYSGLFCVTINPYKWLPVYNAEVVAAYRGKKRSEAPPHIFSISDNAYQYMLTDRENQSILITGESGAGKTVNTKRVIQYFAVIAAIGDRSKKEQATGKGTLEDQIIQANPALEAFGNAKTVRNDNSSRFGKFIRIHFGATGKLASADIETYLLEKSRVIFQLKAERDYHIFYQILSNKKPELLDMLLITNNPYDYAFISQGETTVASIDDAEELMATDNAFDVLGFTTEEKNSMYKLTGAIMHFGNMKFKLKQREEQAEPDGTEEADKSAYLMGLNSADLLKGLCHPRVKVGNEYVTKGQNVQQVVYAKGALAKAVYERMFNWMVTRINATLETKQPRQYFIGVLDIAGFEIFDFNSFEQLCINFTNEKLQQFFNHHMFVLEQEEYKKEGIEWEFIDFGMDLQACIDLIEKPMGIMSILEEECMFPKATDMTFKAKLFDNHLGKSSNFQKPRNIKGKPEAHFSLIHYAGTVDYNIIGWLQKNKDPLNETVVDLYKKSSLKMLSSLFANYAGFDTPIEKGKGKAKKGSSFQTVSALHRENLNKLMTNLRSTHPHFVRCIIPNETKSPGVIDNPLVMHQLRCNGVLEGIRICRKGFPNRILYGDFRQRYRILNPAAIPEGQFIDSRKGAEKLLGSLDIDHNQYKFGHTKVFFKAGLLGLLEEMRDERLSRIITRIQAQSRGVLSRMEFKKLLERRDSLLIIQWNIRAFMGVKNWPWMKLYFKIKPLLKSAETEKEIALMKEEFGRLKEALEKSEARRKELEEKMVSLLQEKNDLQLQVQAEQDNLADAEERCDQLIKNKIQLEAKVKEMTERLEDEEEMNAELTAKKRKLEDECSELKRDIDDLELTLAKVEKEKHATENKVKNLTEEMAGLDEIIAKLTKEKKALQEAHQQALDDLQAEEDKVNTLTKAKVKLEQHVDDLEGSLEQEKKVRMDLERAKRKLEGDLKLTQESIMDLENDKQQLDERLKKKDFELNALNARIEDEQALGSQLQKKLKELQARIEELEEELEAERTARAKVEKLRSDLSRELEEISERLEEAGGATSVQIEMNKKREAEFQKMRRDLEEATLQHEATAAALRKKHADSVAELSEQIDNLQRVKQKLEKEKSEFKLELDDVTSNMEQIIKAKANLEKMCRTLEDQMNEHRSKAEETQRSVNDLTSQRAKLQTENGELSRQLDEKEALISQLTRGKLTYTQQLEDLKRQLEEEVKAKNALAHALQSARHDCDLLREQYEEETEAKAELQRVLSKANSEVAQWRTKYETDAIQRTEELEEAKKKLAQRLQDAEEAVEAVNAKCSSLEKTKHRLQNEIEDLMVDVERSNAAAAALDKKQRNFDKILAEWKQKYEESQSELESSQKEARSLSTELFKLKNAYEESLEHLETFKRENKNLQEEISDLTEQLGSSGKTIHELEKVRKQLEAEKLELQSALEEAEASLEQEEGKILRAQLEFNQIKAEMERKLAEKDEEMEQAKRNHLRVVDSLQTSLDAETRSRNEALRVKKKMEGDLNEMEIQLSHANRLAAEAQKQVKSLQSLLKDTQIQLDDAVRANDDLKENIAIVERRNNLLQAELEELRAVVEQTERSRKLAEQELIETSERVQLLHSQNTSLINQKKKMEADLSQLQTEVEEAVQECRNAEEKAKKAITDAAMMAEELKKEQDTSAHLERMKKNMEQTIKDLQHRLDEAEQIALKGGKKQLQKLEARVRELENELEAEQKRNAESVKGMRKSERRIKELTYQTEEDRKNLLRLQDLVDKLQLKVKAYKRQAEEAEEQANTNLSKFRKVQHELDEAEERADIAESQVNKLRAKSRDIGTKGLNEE
# Sequence of bovine cardiac myosin (P85100 whole entry partner): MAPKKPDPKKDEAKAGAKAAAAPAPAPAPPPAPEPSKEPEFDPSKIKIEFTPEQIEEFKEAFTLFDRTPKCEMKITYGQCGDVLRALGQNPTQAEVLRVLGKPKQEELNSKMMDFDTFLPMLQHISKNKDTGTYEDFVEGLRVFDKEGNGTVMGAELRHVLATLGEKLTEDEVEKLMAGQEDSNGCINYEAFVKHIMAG
# Sequence of bovine cardiac myosin (Q3SZE5 whole entry partner): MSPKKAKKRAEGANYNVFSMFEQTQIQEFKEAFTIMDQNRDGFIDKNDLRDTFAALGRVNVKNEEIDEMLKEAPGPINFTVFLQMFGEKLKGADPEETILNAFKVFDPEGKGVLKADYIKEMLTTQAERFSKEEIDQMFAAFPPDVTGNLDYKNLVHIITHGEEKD
row,Compound,Myosin Activation (AC20)
1,"CC(C)(C1CCN(C(=O)Nc2ccnnc2)CC1)S(=O)(=O)c1ccccc1C(F)(F)F [Compound 195, N-(pyridazin-4-yl)-4-(2-((2-(trifluoromethyl)phenyl)sulfonyl)propan-2-yl)piperidine-1-carboxamide]",++ (++ represents myosin activation value AC20 from 2 μM-5 μM)
2,"Cc1cc(C#N)ccc1S(=O)(=O)C(C)(C)C1CCN(C(=O)Nc2ccnnc2)CC1 [Compound 196, 4-(2-((4-cyano-2-methylphenyl)sulfonyl)propan-2-yl)-N-(pyridazin-4-yl)piperidine-1-carboxamide]",++ (++ represents myosin activation value AC20 from 2 μM-5 μM)
3,"CC(C)(C1CCN(C(=O)Nc2ccnnc2)CC1)S(=O)(=O)c1ccccc1Cl [Compound 197, 4-(2-((2-chlorophenyl)sulfonyl)propan-2-yl)-N-(pyridazin-4-yl)piperidine-1-carboxamide]",+++ (+++ represents myosin activation value AC20 < 2 μM)
4,"Cn1cc(S(=O)(=O)C(C)(C)C2CCN(C(=O)Nc3ccncc3)CC2)cn1 [Compound 198, 4-(2-((1-methyl-1H-pyrazol-4-yl)sulfonyl)propan-2-yl)-N-(pyridin-4-yl)piperidine-1-carboxamide]",+ (+ represents myosin activation value AC20 > 5 μM)
5,"Cn1cc(S(=O)(=O)C(C)(C)C2CCN(C(=O)Nc3ccnnc3)CC2)cn1 [Compound 199, 4-(2-((1-methyl-1H-pyrazol-4-yl)sulfonyl)propan-2-yl)-N-(pyridazin-4-yl)piperidine-1-carboxamide]",+ (+ represents myosin activation value AC20 > 5 μM)
6,"N#Cc1ccccc1S(=O)(=O)C1(C2CCN(C(=O)Nc3ccnnc3)CC2)CC1 [Compound 200, 4-(1-((2-cyanophenyl)sulfonyl)cyclopropyl)-N-(pyridazin-4-yl)piperidine-1-carboxamide]",++ (++ represents myosin activation value AC20 from 2 μM-5 μM)
7,"CC(C)(C1CCN(C(=O)Nc2ccns2)CC1)S(=O)(=O)c1ccccc1C#N [Compound 201, 4-(2-((2-cyanophenyl)sulfonyl)propan-2-yl)-N-(isothiazol-5-yl)piperidine-1-carboxamide]",+ (+ represents myosin activation value AC20 > 5 μM)
8,"Cc1ccccc1S(=O)(=O)C1(C2CCN(C(=O)Nc3ccncc3)CC2)CC1 [Compound 202, N-(pyridin-4-yl)-4-(1-(o-tolylsulfonyl)cyclopropyl)piperidine-1-carboxamide]",+++ (+++ represents myosin activation value AC20 < 2 μM)
9,"O=C(Nc1ccns1)N1CCC(C2(S(=O)(=O)c3cc(F)cc(F)c3)CC2)CC1 [Compound 203, 4-(1-((3,5-difluorophenyl)sulfonyl)cyclopropyl)-N-(isothiazol-5-yl)piperidine-1-carboxamide]",+++ (+++ represents myosin activation value AC20 < 2 μM)
10,"CC(C)(C1CCN(C(=O)Nc2ccnnc2)CC1)S(=O)(=O)c1ccccc1C#N [Compound 204, 4-(2-((2-cyanophenyl)sulfonyl)propan-2-yl)-N-(pyridazin-4-yl)piperidine-1-carboxamide]",+ (+ represents myosin activation value AC20 > 5 μM)
11,"O=C(Nc1ccnnc1)N1CCC(C2(S(=O)(=O)c3ccc(OC(F)(F)F)cc3)CC2)CC1 [Compound 205, N-(pyridazin-4-yl)-4-(1-((4-(trifluoromethoxy)phenyl)sulfonyl)cyclopropyl)piperidine-1-carboxamide]",+++ (+++ represents myosin activation value AC20 < 2 μM)
12,"O=C(Nc1ccncc1)N1CCC(C2(S(=O)(=O)c3ccc(OC(F)(F)F)cc3)CC2)CC1 [Compound 206, N-(pyridin-4-yl)-4-(1-((4-(trifluoromethoxy)phenyl)sulfonyl)cyclopropyl)piperidine-1-carboxamide]",+++ (+++ represents myosin activation value AC20 < 2 μM)
13,"O=C(Nc1ccns1)N1CCC(C2(S(=O)(=O)c3ccc(OC(F)(F)F)cc3)CC2)CC1 [Compound 207, N-(isothiazol-5-yl)-4-(1-((4-(trifluoromethoxy)phenyl)sulfonyl)cyclopropyl)piperidine-1-carboxamide]",+++ (+++ represents myosin activation value AC20 < 2 μM)
14,"CC(C)(C1CCN(C(=O)Nc2ccns2)CC1)S(=O)(=O)c1ccccc1Cl [Compound 208, 4-(2-((2-chlorophenyl)sulfonyl)propan-2-yl)-N-(isothiazol-5-yl)piperidine-1-carboxamide]",++ (++ represents myosin activation value AC20 from 2 μM-5 μM)
15,"CC(C)(C1CCN(C(=O)Nc2ccncc2)CC1)S(=O)(=O)c1ccccc1C#N [Compound 209, 4-(2-((2-cyanophenyl)sulfonyl)propan-2-yl)-N-(pyridin-4-yl)piperidine-1-carboxamide]",++ (++ represents myosin activation value AC20 from 2 μM-5 μM)
16,"CC(C)(C1CCN(C(=O)Nc2ccns2)CC1)S(=O)(=O)c1cc(F)cc(F)c1 [Compound 210, 4-(2-((3,5-difluorophenyl)sulfonyl)propan-2-yl)-N-(isothiazol-5-yl)piperidine-1-carboxamide]",+++ (+++ represents myosin activation value AC20 < 2 μM)
17,"CC(C)(C1CCN(C(=O)Nc2cnns2)CC1)S(=O)(=O)c1cccc(F)c1 [Compound 211, 4-(2-((3-fluorophenyl)sulfonyl)propan-2-yl)-N-(1,2,3-thiadiazol-5-yl)piperidine-1-carboxamide]",+++ (+++ represents myosin activation value AC20 < 2 μM)
18,"Cc1ccccc1S(=O)(=O)C(C)(C)C1CCN(C(=O)Nc2ccncc2)CC1 [Compound 212, N-(pyridin-4-yl)-4-(2-(o-tolylsulfonyl)propan-2-yl)piperidine-1-carboxamide]",+++ (+++ represents myosin activation value AC20 < 2 μM)
19,"Cc1ccccc1S(=O)(=O)C(C)(C)C1CCN(C(=O)Nc2ccns2)CC1 [Compound 213, N-(isothiazol-5-yl)-4-(2-(o-tolylsulfonyl)propan-2-yl)piperidine-1-carboxamide]",+++ (+++ represents myosin activation value AC20 < 2 μM)
20,"Cc1cnccc1NC(=O)N1CCC(C(C)(C)S(=O)(=O)c2cccc(F)c2)CC1 [Compound 214, 4-(2-((3-fluorophenyl)sulfonyl)propan-2-yl)-N-(3-methylpyridin-4-yl)piperidine-1-carboxamide]",+ (+ represents myosin activation value AC20 > 5 μM)
21,"COc1ccccc1S(=O)(=O)C(C)(C)C1CCN(C(=O)Nc2ccns2)CC1 [Compound 215, N-(isothiazol-5-yl)-4-(2-((2-methoxyphenyl)sulfonyl)propan-2-yl)piperidine-1-carboxamide]",++ (++ represents myosin activation value AC20 from 2 μM-5 μM)
22,"COc1ccccc1S(=O)(=O)C(C)(C)C1CCN(C(=O)Nc2ccncc2)CC1 [Compound 216, 4-(2-((2-methoxyphenyl)sulfonyl)propan-2-yl)-N-(pyridin-4-yl)piperidine-1-carboxamide]",+++ (+++ represents myosin activation value AC20 < 2 μM)
23,"O=C(Nc1ccns1)N1CCC(C2(S(=O)(=O)c3cccc(F)c3)CC2)CC1 [Compound 217, 4-(1-((3-fluorophenyl)sulfonyl)cyclopropyl)-N-(isothiazol-5-yl)piperidine-1-carboxamide]",+++ (+++ represents myosin activation value AC20 < 2 μM)
24,"CC(C)(C1CCN(C(=O)Nc2ccns2)CC1)S(=O)(=O)c1cccc(F)c1 [Compound 218, 4-(2-((3-fluorophenyl)sulfonyl)propan-2-yl)-N-(isothiazol-5-yl)piperidine-1-carboxamide]",++ (++ represents myosin activation value AC20 from 2 μM-5 μM)
25,"CN(C(=O)N1CCC(C(C)(C)S(=O)(=O)c2cccc(F)c2)CC1)c1ccncc1 [Compound 219, 4-(2-((3-fluorophenyl)sulfonyl)propan-2-yl)-N-methyl-N-(pyridin-4-yl)piperidine-1-carboxamide]",+ (+ represents myosin activation value AC20 > 5 μM)
26,"CC(F)(C1CCN(C(=O)Nc2nnco2)CC1)S(=O)(=O)c1cccc(F)c1 (stereo not drawn) [Compound 222, 4-(1-fluoro-1-((3-fluorophenyl)sulfonyl)ethyl)-N-(1,3,4-oxadiazol-2-yl)piperidine-1-carboxamide]",+ (+ represents myosin activation value AC20 > 5 μM)
27,"CC(F)(C1CCN(C(=O)Nc2cncc(F)c2)CC1)S(=O)(=O)c1cccc(F)c1 (stereo not drawn) [Compound 223, 4-(1-fluoro-1-((3-fluorophenyl)sulfonyl)ethyl)-N-(5-fluoropyridin-3-yl)piperidine-1-carboxamide]",+ (+ represents myosin activation value AC20 > 5 μM)
28,"CC(F)(C1CCN(C(=O)Nc2cccnc2)CC1)S(=O)(=O)c1cccc(F)c1 (stereo not drawn) [Compound 224, 4-(1-fluoro-1-((3-fluorophenyl)sulfonyl)ethyl)-N-(pyridin-3-yl)piperidine-1-carboxamide]",++ (++ represents myosin activation value AC20 from 2 μM-5 μM)
29,"Cc1ccc(NC(=O)N2CCC(C(C)(F)S(=O)(=O)c3ccnn3C)CC2)cn1 (stereo not drawn) [Compound 225, 4-(1-fluoro-1-((1-methyl-1H-pyrazol-5-yl)sulfonyl)ethyl)-N-(6-methylpyridin-3-yl)piperidine-1-carboxamide]",++ (++ represents myosin activation value AC20 from 2 μM-5 μM)
30,"Cn1nccc1S(=O)(=O)C(C)(F)C1CCN(C(=O)Nc2ccnc(F)c2)CC1 (stereo not drawn) [Compound 226, 4-(1-fluoro-1-((1-methyl-1H-pyrazol-5-yl)sulfonyl)ethyl)-N-(2-fluoropyridin-4-yl)piperidine-1-carboxamide]",+ (+ represents myosin activation value AC20 > 5 μM)
